The text below walks through data of patent US7179908B2, “Water-and organic-soluble cucurbituril derivatives, their preparation methods, their separation methods and uses” (Pohang University of Science and Technology Foundation, priority 2001, dated 2007).

Values after ≈ are worked out from the molar mass of the structure shown.

Data set [1] is described as follows: Binding constant measured using a microcalorimeter (VP-ITC). To be noted: 0.05 M tris buffered solution pH 7.2. Here is the method:
A 5.5 mM CB*[5] solution and 110 mM-KCl solution were prepared with 0.05 M tris buffered solution having a pH of 7.2. Then, the binding constant of CB*[5] was measured using a microcalorimeter (VP-ITC, manufactured by MicroCal). As a result, CB*[5] forms a 1:2 complex with potassium ions with a primary binding constant of 2.8×10^4 M^−1 and a secondary binding constant of 1.5×10^2 M^−1. CB*[5] can selectively bind with alkali metal ions, as well as with ammonium ions. The result confirms that cucurbituril derivatives can be used as ion sensors.

Data set [2] can be described thus: Solubilities of the cucurbituril derivatives in water, methanol, dimethylsulfoxide and acetonitrile. In kind it is physicochemical.

A word on the Solubility: it is the concentration that dissolves in the medium under given conditions. High values mean a readily soluble substance, low ones a poorly soluble substance.

Take `O=C1N2CN3C(=O)N4CN5C(=O)N6CN7C(=O)N8CN9C(=O)N%10CN1C1%11CCCCC21N1CN2C(=O)N(CN%12C(=O)N(CN%13C(=O)N(CN%14C(=O)N(CN%11C1=O)C%101CCCCC9%141)C81CCCCC7%131)C61CCCCC5%121)C41CCCCC321` (stereo not shown) [CB*[5]]: the “complex stoichiometry with potassium ions” value in data set [1] was 1:2 complex. The primary binding constant in data set [1] (potassium ions (KCl)) is 28000 M⁻¹. The secondary binding constant in data set [1] (potassium ions (KCl)) was determined as 150 M⁻¹. The Solubility in data set [2] (Acetonitrile) was 0.67 mM (≈ 0.738 mg/mL); in data set [2] (Dimethylsulfoxide), 18 mM (≈ 19.8 mg/mL); in data set [2] (Methanol) it was 31 mM (≈ 34.1 mg/mL); in data set [2] (Water), 260 mM (≈ 286 mg/mL).
